Results from patent US10844032B2, “Substituted benzofuran, benzothiophene and indole Mcl-1 inhibitors” (Vanderbilt University, priority 2012, dated 2020).
pKi: −log10 of the molar value.

target: recombinant Mcl-1 (residues 172-327) (Homo sapiens (Human), UniProt Q07820); assay: Bak peptide fluorescence polarization anisotropy competition assay, Mcl-1; assay type: binding; conditions: Table 2, Ki range; FITC-Bak peptide 10 nM, Mcl-1 14 nM; read-out: Ki for inhibition of Mcl-1
Sequence (Q07820 172-327): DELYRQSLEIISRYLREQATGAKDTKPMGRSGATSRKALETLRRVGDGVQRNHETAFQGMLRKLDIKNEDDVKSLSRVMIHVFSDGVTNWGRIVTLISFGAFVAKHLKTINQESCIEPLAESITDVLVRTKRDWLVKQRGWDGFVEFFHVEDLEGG

pKi	Structure (SMILES)
≥ 7.00	Cc1cc(OCCCc2c(C(=O)NS(C)(=O)=O)[nH]c3cccc(Cl)c23)ccc1Cl [Example 50, 4-chloro-3-(3-(4-chloro-3-methylphenoxy)propyl)-N-(methylsulfonyl)-1H-indole-2-carboxamide]
≥ 7.00	Cc1cc(OCCCc2c(C(=O)NS(C)(=O)=O)[nH]c3cccc(Cl)c23)cc(C)c1Cl [Example 51, 4-chloro-3-(3-(4-chloro-3,5-dimethylphenoxy)propyl)-N-(methylsulfonyl)-1H-indole-2-carboxamide]

same assay, conditions: read-out: Ki for inhibition of Mcl-1

pKi	Structure (SMILES)
6.00 to 6.30	Cc1ccc2c(CCCOc3cccc4ccccc34)c(C(=O)O)sc2c1 [Example 9, 6-methyl-3-(3-(naphthalen-1-yloxy)propyl)benzo[b]thiophene-2-carboxylic acid]
6.52 to 7.00	Cc1ccccc1-c1cccc2c(CCCOc3cccc4ccccc34)c(C(=O)O)sc12 [Example 10, 3-(3-(naphthalen-1-yloxy)propyl)-7-(o-tolyl)benzo[b]thiophene-2-carboxylic acid]
6.00 to 6.30	O=C(O)c1sc2c(-c3ccccc3)cccc2c1CCCOc1cccc2ccccc12 [Example 11, 3-(3-(naphthalen-1-yloxy)propyl)-7-phenylbenzo[b]thiophene-2-carboxylic acid]
5.00 to 6.00	Cc1ccccc1-c1ccc2c(CCCOc3cccc4ccccc34)c(C(=O)O)sc2c1 [Example 12, 3-(3-(naphthalen-1-yloxy)propyl)-6-(o-tolyl)benzo[b]thiophene-2-carboxylic acid]
5.00 to 6.00	O=C(O)c1sc2cc(-c3ccccc3)ccc2c1CCCOc1cccc2ccccc12 [Example 13, 3-(3-(naphthalen-1-yloxy)propyl)-6-phenylbenzo[b]thiophene-2-carboxylic acid]
6.30 to 6.52	CS(=O)(=O)NC(=O)c1cc2ccccc2n1CCCOc1cccc2ccccc12 [Example 14, N-(methylsulfonyl)-1-(3-(naphthalen-1-yloxy)propyl)-1H-indole-2-carboxamide]
6.00 to 6.30	O=C(NS(=O)(=O)C(F)(F)F)c1cc2ccccc2n1CCCOc1cccc2ccccc12 [Example 15, 1-(3-(naphthalen-1-yloxy)propyl)-N-((trifluoromethyl)sulfonyl)-1H-indole-2-carboxamide]
5.00 to 6.00	CS(=O)(=O)NC(=O)c1[nH]c2ccccc2c1CCCOc1cccc2ccccc12 [Example 19, N-(methylsulfonyl)-3-(3-(naphthalen-1-yloxy)propyl)-1H-indole-2-carboxamide]
6.30 to 6.52	Cc1cc(OCCCc2c(C(=O)NS(C)(=O)=O)[nH]c3ccccc23)ccc1Cl [Example 20, 3-(3-(4-chloro-3-methylphenoxy)propyl)-N-(methylsulfonyl)-1H-indole-2-carboxamide]
4.30 to 5.00	O=C(O)c1oc2ccccc2c1CCCc1cccc2ccccc12 [Example 22, 3-(3-(naphthalen-1-yl)propyl)benzofuran-2-carboxylic acid]
4.30 to 5.00	O=C(O)c1oc2ccccc2c1CCc1cccc2ccccc12 [Example 23, 3-(2-(naphthalen-1-yl)ethyl)benzofuran-2-carboxylic acid]
5.00 to 6.00	O=C(NS(=O)(=O)c1ccc2ccccc2c1)c1oc2ccccc2c1CCCOc1cccc2ccccc12 [Example 25, 3-(3-(naphthalen-1-yloxy)propyl)-N-(naphthalen-2-ylsulfonyl)benzofuran-2-carboxamide]
5.00 to 6.00	Cc1cc(OCCCc2c(C(=O)NS(=O)(=O)c3ccc4ccccc4c3)oc3ccccc23)cc(C)c1Cl [Example 27, 3-(3-(4-chloro-3,5-dimethylphenoxy)propyl)-N-(naphthalen-2-ylsulfonyl)benzofuran-2-carboxamide]
5.00 to 6.00	Cc1cc(OCCCc2c(C(=O)NS(=O)(=O)c3cccc4ccccc34)oc3ccccc23)cc(C)c1Cl [Example 28, 3-(3-(4-chloro-3,5-dimethylphenoxy)propyl)-N-(naphthalen-1-ylsulfonyl)benzofuran-2-carboxamide]
6.00 to 6.30	Cc1cc(OCCCc2c(C(=O)NS(C)(=O)=O)[nH]c3ccccc23)cc(C)c1Cl [Example 29, 3-(3-(4-chloro-3,5-dimethylphenoxy)propyl)-N-(methylsulfonyl)-1H-indole-2-carboxamide]
4.30 to 5.00	CS(=O)(=O)NC(=O)c1[nH]c2ccccc2c1CCCOc1ccccc1 [Example 30, N-(methylsulfonyl)-3-(3-phenoxypropyl)-1H-indole-2-carboxamide]
4.30 to 5.00	Cc1cccc(OCCCc2c(C(=O)NS(C)(=O)=O)[nH]c3ccccc23)c1 [Example 31, N-(methylsulfonyl)-3-(3-(m-tolyloxy)propyl)-1H-indole-2-carboxamide]
5.00 to 6.00	CS(=O)(=O)NC(=O)c1[nH]c2ccccc2c1CCCOc1cccc(C(F)(F)F)c1 [Example 32, N-(methylsulfonyl)-3-(3-(3-(trifluoromethyl)phenoxy)propyl)-1H-indole-2-carboxamide]
4.30 to 5.00	Cc1ccc(OCCCc2c(C(=O)NS(C)(=O)=O)[nH]c3ccccc23)cc1 [Example 33, N-(methylsulfonyl)-3-(3-(p-tolyloxy)propyl)-1H-indole-2-carboxamide]
4.30 to 5.00	CS(=O)(=O)NC(=O)c1[nH]c2ccccc2c1CCCOc1ccc(C(F)(F)F)cc1 [Example 34, N-(methylsulfonyl)-3-(3-(4-(trifluoromethyl)phenoxy)propyl)-1H-indole-2-carboxamide]
4.30 to 5.00	CS(=O)(=O)NC(=O)c1[nH]c2ccccc2c1CCCOc1ccc(Cl)cc1 [Example 35, 3-(3-(4-chlorophenoxy)propyl)-N-(methylsulfonyl)-1H-indole-2-carboxamide]
4.30 to 5.00	CS(=O)(=O)NC(=O)c1[nH]c2ccccc2c1CCCOc1ccc(Br)cc1 [Example 36, 3-(3-(4-bromophenoxy)propyl)-N-(methylsulfonyl)-1H-indole-2-carboxamide]
5.00 to 6.00	CS(=O)(=O)NC(=O)c1[nH]c2ccccc2c1CCCOc1ccc2ccccc2c1 [Example 37, N-(methylsulfonyl)-3-(3-(naphthalen-2-yloxy)propyl)-1H-indole-2-carboxamide]
5.00 to 6.00	CS(=O)(=O)NC(=O)c1[nH]c2ccccc2c1CCCOc1ccc2c(c1)CCCC2 [Example 38, N-(methylsulfonyl)-3-(3-((5,6,7,8-tetrahydronaphthalen-2-yl)oxy)propyl)-1H-indole-2-carboxamide]
6.00 to 6.30	CS(=O)(=O)NC(=O)c1[nH]c2ccccc2c1CCCOc1ccc(Cl)c2ccccc12 [Example 39, 3-(3-((4-chloronaphthalen-1-yl)oxy)propyl)-N-(methylsulfonyl)-1H-indole-2-carboxamide]
5.00 to 6.00	CCc1cc(OCCCc2c(C(=O)NS(C)(=O)=O)[nH]c3ccccc23)ccc1Cl [Example 44, 3-(3-(4-chloro-3-ethylphenoxy)propyl)-N-(methylsulfonyl)-1H-indole-2-carboxamide]
5.00 to 6.00	CS(=O)(=O)NC(=O)c1[nH]c2ccccc2c1CCCOc1cccc2c1CCCC2 [Example 46, N-(methylsulfonyl)-3-(3-((5,6,7,8-tetrahydronaphthalen-1-yl)oxy)propyl)-1H-indole-2-carboxamide]
6.52 to 7.00	CS(=O)(=O)NC(=O)c1[nH]c2cccc(Cl)c2c1CCCOc1cccc2ccccc12 [Example 49, 4-chloro-N-(methylsulfonyl)-3-(3-(naphthalen-1-yloxy)propyl)-1H-indole-2-carboxamide]
